Results on eleven molecules are retold here after US20110195929A1, “COMPOUNDS FOR THE TREATMENT OF FLAVIVIRAL INFECTIONS” (SUMMIT CORPORATION PLC, priority 2008, published 2011).

One experiment concerns the target T1, α-D-galactosidase (Coffea arabica, UniProt Q42656).
T1 construct: purchased Sigma
The experiment is described as follows: Glycosidase inhibition: α-D-galactosidase. The format is biochemical, Green coffee beans (Coffea sp.). The settings on record: 1 mg/ml; pH 6.5, 20° C. How it is done: (§1) Inhibition of the N-linked glycan trimming enzymes alpha-Glucosidases I and II or alpha-Mannosidases I and II are thought to be related to the anti-viral activity of castanospermine (Compound 104) and 1-deoxynojirimycin (Compound 193). […] All enzymes were purchased from Sigma, as were the appropriate p-nitrophenyl substrates. Assays were carried out in microtitre plates. Enzymes were assayed in 0.1M citric acid/0.2M di-sodium hydrogen phosphate (McIlvaine) buffers at the optimum pH for the enzyme. All assays were carried out at 20° C. For screening assays the incubation assay consisted of 10 μl of enzyme solution, 10 μl of inhibitor solution (made up in water at 5 mM) and 50 μl of the appropriate 5 mM p-nitrophenyl substrate (3.57 mM final conc.) made up in McIlvaine buffer at the optimum pH for the enzyme.
(§2) The reactions were stopped with 0.4M glycine (pH 10.4) during the exponential phase of the reaction, which was determined at the beginning of the assay using blanks with water, which were incubated for a range of time periods to measure the reaction rate using 5 mM substrate solution. Endpoint absorbances were read at 405 nm with a Bio-rad microtitre plate reader (Benchmark). Water was substituted for the inhibitors in the blanks.

Experiment [1] deals with T2, α-D-glucosidase (Oryza sativa subsp. japonica, UniProt Q653V7).
T2 construct: purchased Sigma
Nature of the experiment: Glycosidase inhibition: α-D-glucosidase (rice). The settings on record: 1 mg/ml; pH 6.0, 20° C. The format is biochemical, rice (Oryza sativa). How it is done: as §1, §2

For another experiment, the system named is β-D-galactosidase. Nature of the experiment: Glycosidase inhibition: β-D-galactosidase. The settings on record: 1 mg/ml; pH 7.3, 20° C. It counts as biochemical, Bovine liver. The procedure:
as §1, §2

The next experiment has as its target T3, α-L-fucosidase (Bos taurus, UniProt Q2KIM0).
T3 construct: purchased Sigma; host or cells: bovine kidney
T3 sequence (Q2KIM0 23-468): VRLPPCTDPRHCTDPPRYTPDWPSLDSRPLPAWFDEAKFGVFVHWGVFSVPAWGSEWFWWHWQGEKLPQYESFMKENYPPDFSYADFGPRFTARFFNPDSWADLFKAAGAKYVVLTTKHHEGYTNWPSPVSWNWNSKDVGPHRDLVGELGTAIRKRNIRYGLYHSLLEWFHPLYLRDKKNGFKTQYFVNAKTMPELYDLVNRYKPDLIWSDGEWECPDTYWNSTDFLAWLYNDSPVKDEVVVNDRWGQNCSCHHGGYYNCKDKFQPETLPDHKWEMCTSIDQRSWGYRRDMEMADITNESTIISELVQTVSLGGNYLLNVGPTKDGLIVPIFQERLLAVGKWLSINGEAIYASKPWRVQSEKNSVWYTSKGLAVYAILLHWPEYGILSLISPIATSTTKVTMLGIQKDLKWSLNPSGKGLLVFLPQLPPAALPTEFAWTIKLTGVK
Nature of the experiment: Glycosidase inhibition: α-L-fucosidase. It counts as biochemical, Bovine kidney. The settings on record: 1 mg/ml; pH 5.5, 20° C. The procedure: All enzymes were purchased from Sigma, as were the appropriate p-nitrophenyl substrates. Assays were carried out in microtitre plates. Enzymes were assayed in 0.1M citric acid/0.2M di-sodium hydrogen phosphate (McIlvaine) buffers at the optimum pH for the enzyme. All assays were carried out at 20° C. For screening assays the incubation assay consisted of 10 μl of enzyme solution, 10 μl of inhibitor solution (made up in water at 5 mM) and 50 μl of the appropriate 5 mM p-nitrophenyl substrate (3.57 mM final conc.) made up in McIlvaine buffer at the optimum pH for the enzyme.
as §2

The test system of a further experiment is Naringinase. Nature of the experiment: Glycosidase inhibition: Naringinase. The format is biochemical, Penecillium decumbens. The settings on record: 1 mg/ml; pH 4.0, 20° C. The procedure: as §1, §2
The target of experiment [2] is T4, α-D-glucosidase (Saccharomyces cerevisiae, UniProt P53341).
T4 construct: purchased Sigma
The experiment is described as follows: Glycosidase inhibition: α-D-glucosidase (yeast). It counts as biochemical, Saccharomyces cerevisiae (Baker's yeast). The settings on record: 1 mg/ml; pH 6.0, 20° C. The procedure: as §1, §2

A further experiment deals with T5, α-D-mannosidase (Canavalia ensiformis, UniProt C0HJB3).
T5 construct: purchased Sigma
T5 sequence (C0HJB3 1-981): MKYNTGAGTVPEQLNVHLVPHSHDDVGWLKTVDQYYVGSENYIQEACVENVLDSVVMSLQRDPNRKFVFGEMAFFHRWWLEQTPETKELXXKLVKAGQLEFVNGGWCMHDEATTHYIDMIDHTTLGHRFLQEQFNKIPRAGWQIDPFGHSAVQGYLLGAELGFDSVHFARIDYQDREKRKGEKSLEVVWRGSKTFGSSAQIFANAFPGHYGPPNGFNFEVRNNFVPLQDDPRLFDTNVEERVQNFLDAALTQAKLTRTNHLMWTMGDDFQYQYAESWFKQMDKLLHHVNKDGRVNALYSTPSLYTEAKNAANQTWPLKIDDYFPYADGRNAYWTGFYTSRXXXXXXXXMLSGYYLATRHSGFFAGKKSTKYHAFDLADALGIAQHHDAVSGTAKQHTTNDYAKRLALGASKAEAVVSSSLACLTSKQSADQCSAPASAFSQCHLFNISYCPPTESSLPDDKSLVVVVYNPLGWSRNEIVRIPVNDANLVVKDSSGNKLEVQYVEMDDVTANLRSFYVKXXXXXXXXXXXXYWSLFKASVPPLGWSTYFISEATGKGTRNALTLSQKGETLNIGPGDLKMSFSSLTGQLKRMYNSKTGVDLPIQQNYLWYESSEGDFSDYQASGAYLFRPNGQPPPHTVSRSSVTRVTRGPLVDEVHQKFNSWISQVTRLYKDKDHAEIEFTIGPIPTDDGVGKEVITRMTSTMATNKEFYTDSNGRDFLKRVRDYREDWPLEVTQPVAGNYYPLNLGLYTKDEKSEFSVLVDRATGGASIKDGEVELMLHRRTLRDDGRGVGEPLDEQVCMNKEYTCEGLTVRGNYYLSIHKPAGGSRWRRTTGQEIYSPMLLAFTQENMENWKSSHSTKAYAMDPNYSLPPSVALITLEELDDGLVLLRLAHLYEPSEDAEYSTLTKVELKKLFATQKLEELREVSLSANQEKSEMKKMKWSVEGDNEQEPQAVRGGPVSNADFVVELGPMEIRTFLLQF
Nature of the experiment: Glycosidase inhibition: α-D-mannosidase. The format is biochemical, Jack beans (Canavalia ensiformis). The settings on record: 1 mg/ml; pH 4.5, 20° C. The procedure:
as §1, §2

For experiment [3], the system named is N-acetyl-β-D-glucosaminidase. Nature of the experiment: Glycosidase inhibition: N-acetyl-β-D-glucosaminidase. The format is biochemical, Bovine kidney. The settings on record: 1 mg/ml; pH 4.25, 20° C. How it is done:
as §1, §2

The subject of experiment [4] is α-D-glucosidase. The experiment is described as follows: Glycosidase inhibition: α-D-glucosidase (Bacillus). The settings on record: 1 mg/ml; pH 6.0, 20° C. The format is biochemical, Bacillus stearothermophilus. How it is done:
as §1, §2

The subject of the next experiment is β-D-glucosidase. Nature of the experiment: Glycosidase inhibition: β-D-glucosidase. The format is biochemical, Almonds (Prunus sp.). The settings on record: 1 mg/ml; pH 5.0, 20° C. The procedure: as §1, §2
Another experiment relates to HCV. The experiment is described as follows: Cell-based HCV infection NS3 protease FRET assay in DMSO-Huh7 cells. On the set-up: species or system hepatitis C virus (HCV). The settings on record: DMSO-Huh7 cells infected with HCV at 0.05 ffu/cell; HCV NS3 protein levels by FRET, day 6 p.i.

T4 sequence (P53341 whole entry): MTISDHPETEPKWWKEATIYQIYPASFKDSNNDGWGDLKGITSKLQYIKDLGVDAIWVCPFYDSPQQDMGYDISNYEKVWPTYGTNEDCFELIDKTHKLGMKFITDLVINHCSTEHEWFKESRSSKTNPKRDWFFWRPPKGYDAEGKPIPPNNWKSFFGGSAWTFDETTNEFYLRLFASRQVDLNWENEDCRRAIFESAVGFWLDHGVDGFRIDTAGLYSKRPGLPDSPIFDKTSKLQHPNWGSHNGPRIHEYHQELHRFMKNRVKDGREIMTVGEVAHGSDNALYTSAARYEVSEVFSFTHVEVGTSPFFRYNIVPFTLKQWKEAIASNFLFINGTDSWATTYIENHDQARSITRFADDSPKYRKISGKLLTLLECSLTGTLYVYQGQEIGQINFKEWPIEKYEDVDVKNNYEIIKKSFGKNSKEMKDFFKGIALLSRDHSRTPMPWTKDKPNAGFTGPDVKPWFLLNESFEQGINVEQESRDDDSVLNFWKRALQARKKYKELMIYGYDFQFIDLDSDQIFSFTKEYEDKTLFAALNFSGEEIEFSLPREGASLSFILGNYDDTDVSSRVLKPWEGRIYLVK
T2 sequence (Q653V7 34-885): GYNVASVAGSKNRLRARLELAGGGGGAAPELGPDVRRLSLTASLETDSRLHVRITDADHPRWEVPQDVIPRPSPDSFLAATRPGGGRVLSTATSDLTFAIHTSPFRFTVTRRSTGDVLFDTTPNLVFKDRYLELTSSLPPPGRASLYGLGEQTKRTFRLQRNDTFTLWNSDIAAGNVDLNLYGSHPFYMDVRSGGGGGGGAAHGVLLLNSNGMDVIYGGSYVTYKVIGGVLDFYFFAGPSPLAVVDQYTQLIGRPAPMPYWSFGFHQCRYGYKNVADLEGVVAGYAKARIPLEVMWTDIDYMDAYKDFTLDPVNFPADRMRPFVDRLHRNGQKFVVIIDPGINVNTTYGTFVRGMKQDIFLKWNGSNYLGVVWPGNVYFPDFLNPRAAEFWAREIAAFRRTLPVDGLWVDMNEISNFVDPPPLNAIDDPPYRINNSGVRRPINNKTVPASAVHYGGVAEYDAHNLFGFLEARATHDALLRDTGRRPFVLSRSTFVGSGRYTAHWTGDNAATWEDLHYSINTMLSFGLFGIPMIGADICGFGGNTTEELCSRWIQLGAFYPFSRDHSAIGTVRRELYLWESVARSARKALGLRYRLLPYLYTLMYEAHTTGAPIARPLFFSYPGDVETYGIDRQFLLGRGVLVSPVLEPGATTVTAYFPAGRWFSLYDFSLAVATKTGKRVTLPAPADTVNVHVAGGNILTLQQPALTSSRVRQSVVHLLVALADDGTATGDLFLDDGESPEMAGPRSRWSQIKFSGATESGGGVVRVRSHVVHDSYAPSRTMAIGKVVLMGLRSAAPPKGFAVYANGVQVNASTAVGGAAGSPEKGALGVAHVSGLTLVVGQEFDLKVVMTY
T1 sequence (Q42656 16-378): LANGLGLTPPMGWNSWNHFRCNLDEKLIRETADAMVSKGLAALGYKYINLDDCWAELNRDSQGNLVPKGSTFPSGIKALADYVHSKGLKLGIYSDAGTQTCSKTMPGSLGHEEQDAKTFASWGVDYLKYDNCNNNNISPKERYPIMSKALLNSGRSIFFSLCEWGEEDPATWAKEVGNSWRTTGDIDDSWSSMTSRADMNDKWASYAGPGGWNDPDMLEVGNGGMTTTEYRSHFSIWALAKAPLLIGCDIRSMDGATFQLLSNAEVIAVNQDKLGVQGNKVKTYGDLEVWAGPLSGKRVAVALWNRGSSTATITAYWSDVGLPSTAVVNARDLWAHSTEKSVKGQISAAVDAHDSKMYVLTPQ

`OC[C@H]1NC[C@H](O)[C@@H](O)[C@@H]1O` [Compound 193, 1-deoxynojirimycin, reference compound]: on α-D-galactosidase, the “% inhibition α-galactosidase” value was 0%. For the same molecule, the “% inhibition α-gluc (rice)” value on α-D-glucosidase [1] is listed as 100%. Moreover, the “% inhibition β-galactosidase” value in the experiment on β-D-galactosidase turned out to be 0%. Moreover, the “% inhibition α-fucosidase” value on α-L-fucosidase is 0%. Further, the “% inhibition Naringinase” value with Naringinase worked out at 0%. In addition, the “% inhibition α-gluc (yeast)” value on α-D-glucosidase [2] is 35%. The “% inhibition α-mannosidase” value on α-D-mannosidase is 0%. Further, the “% inhibition N-acetyl-β-gluc” value in experiment [3] turned out to be 0%. Moreover, the “% inhibition α-gluc (Bacillus)” value with α-D-glucosidase [4] was determined as 100%. The “% inhibition β-glucosidase” value with β-D-glucosidase was determined as 64%. In the case of `CCCCCCCCCN1C[C@H](O)C(NC(C)=O)[C@@H](O)C1` [Compound 777, N-((3S,5S)-3,5-dihydroxy-1-nonylpiperidin-4-yl)acetamide], the Ave % inhibition result with HCV is listed as “+++ (+++: 40-59%)”.

Take `CCCCCCCCCN1C[C@@H](O)[C@H](O)[C@@H](NC(C)=O)C1` [Compound 780, N-((3S,4R,5R)-4,5-dihydroxy-1-nonylpiperidin-3-yl)acetamide]: the Ave % inhibition entry with HCV is given as “++ (++: 20-39%)”. On the same count and under the same terms, then `CCCCCCCCCN1C[C@@H](O)C(NC(C)=O)[C@H](O)C1` [Compound 783, N-((3R,5R)-3,5-dihydroxy-1-nonylpiperidin-4-yl)acetamide], with “+++ (+++: 40-59%)”; and `CCCCCCCCCN1C[C@@H](O)[C@H](NC(C)=O)[C@@H](O)C1` [Compound 789, N-((3S,4r,5R)-3,5-dihydroxy-1-nonylpiperidin-4-yl)acetamide], with “+++ (+++: 40-59%)”. As to `CCCCCCCCCN1C[C@@H](O)[C@@H](O)[C@H](O)[C@H](O)C1` [Compound 794, (3R,4R,5R,6R)-1-nonylazepane-3,4,5,6-tetraol], the Ave % inhibition entry in the experiment with HCV was “++++ (++++: 60-79%)”. Consider `OC[C@@H](O)[C@@H]1[C@H](O)[C@H](O)CN1Cc1ccccc1` [Compound 799, (2R,3S,4R)-1-benzyl-2-((S)-1,2-dihydroxyethyl)pyrrolidine-3,4-diol], for which, in the experiment with HCV, the Ave % inhibition result is given as “+ (+: ≦19%)”. On the same count and under the same terms, with “(1S,2S,3S,6R,7R,7aR)-1,6,7-trihydroxy-3-(hydroxymethyl)hexahydro-1H-pyrrolizin-2-yl methanesulfonate [Compound 635]” the entry was “++ (++: 20-39%)”; with “(3R,5S)-5-(acetamidomethyl)-1-butylpyrrolidin-3-yl acetate [Compound 546]”, “++ (++: 20-39%)”. Take “(3R,5S)-5-(acetamidomethyl)-1-nonylpyrrolidin-3-yl acetate [Compound 547]”: the Ave % inhibition entry in the experiment on HCV is “++++ (++++: 60-79%)”. With “((2S,4S)-4-acetamido-1-nonylpyrrolidin-2-yl)methyl acetate [Compound 332]”, in the experiment on HCV, the Ave % inhibition result is “+++++ (+++++: ≧80%)”.
